From patent US20240197687A1, “METHODS OF TREATING NEUROINFLAMMATION AND INHIBITING MONOAMINE OXIDASE-A AND RESTORING/UPREGULATING/INCREASING IL-13 AND AND PGC-1 BY ADMINISTERING ORAL DOSAGE FORM CONTAINING MICRONIZED AND NONMICRONIZED PARTICULATE METAXALONE, ALGINIC ACID AND PROPYLENE GLYCOL ALGINATE” (Primus Pharmaceuticals, Inc., priority 2022, published 2024)

Tests used:
[1] = biological target: T1, monoamine oxidase A (MAO-A) (Homo sapiens, UniProt P21397); settings: cited from earlier work
T1 sequence (P21397 1-527): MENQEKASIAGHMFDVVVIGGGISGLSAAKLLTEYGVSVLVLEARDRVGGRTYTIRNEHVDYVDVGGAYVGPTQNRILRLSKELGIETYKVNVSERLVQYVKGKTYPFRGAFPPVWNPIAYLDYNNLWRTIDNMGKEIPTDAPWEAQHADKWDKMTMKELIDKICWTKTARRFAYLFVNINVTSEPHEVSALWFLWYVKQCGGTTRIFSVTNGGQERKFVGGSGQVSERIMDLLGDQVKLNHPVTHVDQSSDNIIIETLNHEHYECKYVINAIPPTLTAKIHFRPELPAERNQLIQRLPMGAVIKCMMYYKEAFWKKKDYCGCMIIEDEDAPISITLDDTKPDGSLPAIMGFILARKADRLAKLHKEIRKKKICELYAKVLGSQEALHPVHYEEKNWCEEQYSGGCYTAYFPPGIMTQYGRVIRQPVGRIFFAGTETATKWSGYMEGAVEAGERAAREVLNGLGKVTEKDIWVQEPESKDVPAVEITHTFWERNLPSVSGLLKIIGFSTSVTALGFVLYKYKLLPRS

[2] = tested on: Mouse Macrophages RAW264.7 cells; settings: LPS-stimulated mouse macrophages; cited from earlier work
MAO-A = biological target: T2, MAO-A (Homo sapiens, UniProt P21397); assay: MAO-A activity assay (MAO-GLO bioluminescent) in IL-1β-stimulated microglial cells; assay type: cell-based; settings: chemiluminescence assay, metaxalone 10, 20, 40 μg/mL, dose-dependent, p<0.0001 vs. IL-1β
T2 construct: MAO-A was constitutively expressed in microglia cells; endogenous in cells; host or cells: HMC3 human microglial cells
T2 sequence (P21397 1-527): T1 sequence (P21397 1-527)
Experimental: MAO-A Activity Assay. MAO-A activity was evaluated by a two-step bioluminescent assay methodology, as previously described (See, Lin, Y. C. et al., MAO-A novel decision maker of apoptosis and autophagy in hormone refractory neuroendocrine prostate cancer cells. Sci. Rep. 2017, 7, 46338) using a MAO-GLO™ assay kit from Promega (Madison, WI, USA). The produced amount of signal (light intensity) was measured using a microplate luminometer (Multilabel Counter Victor3™, PerkinElmer Life Sciences). Human recombinant MAO-A enzyme was used as a positive control. The results are given as relative light units after the background was subtracted.

HMC3 microglial cells [3] = tested on: HMC3 microglial cells
HMC3 microglial cells [4] = assay: RT-qPCR mRNA expression in IL-1β-stimulated HMC3 microglial cells; assay type: cell-based, Human; settings: metaxalone 10, 20, 40 μg/mL, p<0.0001 vs. IL-1β
Experimental: Human microglial HMC3 cell line (CRL-3304) was obtained from ATCC (American Type Culture Collection; Manassas, VA, USA). Cells were cultured in Eagle's minimum essential medium (EMEM) with a supplement of 10% fetal bovine serum (FBS) and 1% antibiotic mixture, and were incubated at 37° C. with 5% of CO2. Both medium and supplements were provided by ATCC (Manassas, VA, USA). Cells were seeded in 6-well plates at a density of 4×10^5 cells/well. A stock solution of metaxalone (Sigma Aldrich, Milan, Italy) was prepared by dissolving metaxalone in DMSO. Sixteen hours after plating (time 0), metaxalone was added at the doses of 10, 20, and 40 μg/mL 1 h following IL-1β stimulation (5 ng/mL; Sigma Aldrich, Milan, Italy). After 6 h cells were harvested for mRNA evaluation. In a separate set of plates, cells were incubated for 24 h before MTT assay to evaluate cell viability. The dose-response curve for IL-1β stimulation can be found at Supplemental FIG. S1. Total RNA was extracted from human microglial HMC3 for RT-qPCR using Trizol LS reagent (Invitrogen, Carlsbad, CA, USA). Two μg of total RNA was reverse transcribed in a final volume of 20 μL using a Superscript VILO kit (Invitrogen, Carlsbad, CA, USA). […] The final primer concentration used to carry out the analysis was 10 μM. Samples from each group were run in duplicate and β-actin was used as an endogenous control. Results were calculated using the 2-ΔΔCT method and expressed as n-fold increase in gene expression using control group as calibrator. […]. et al. Activation of A2A Receptor by PDRN Reduces Neuronal Damage and Stimulates WNT/β-CATENIN Driven Neurogenesis in Spinal Cord Injury. Front. Pharmacol. 2018, 9, 506. Pizzino, G. et al. Effects of the antagomiRs 15b and 200b on the altered healing pattern of diabetic mice. Br. J. Pharmacol. 2018, 175, 644-655.

HMC3 microglial cells [5] = assay: ELISA of cytokines in cell culture supernatants of IL-1β-stimulated HMC3 cells; assay type: cell-based, Human; settings: metaxalone 10, 20, 40 μg/mL, dose-dependent, p<0.0001 vs. IL-1β
Experimental: Human microglial HMC3 cell line (CRL-3304) was obtained from ATCC (American Type Culture Collection; Manassas, VA, USA). Cells were cultured in Eagle's minimum essential medium (EMEM) with a supplement of 10% fetal bovine serum (FBS) and 1% antibiotic mixture, and were incubated at 37° C. with 5% of CO2. Both medium and supplements were provided by ATCC (Manassas, VA, USA). Cells were seeded in 6-well plates at a density of 4×10^5 cells/well. A stock solution of metaxalone (Sigma Aldrich, Milan, Italy) was prepared by dissolving metaxalone in DMSO. Sixteen hours after plating (time 0), metaxalone was added at the doses of 10, 20, and 40 μg/mL 1 h following IL-1β stimulation (5 ng/mL; Sigma Aldrich, Milan, Italy). After 6 h cells were harvested for mRNA evaluation. In a separate set of plates, cells were incubated for 24 h before MTT assay to evaluate cell viability. The dose-response curve for IL-1β stimulation can be found at Supplemental FIG. S1. Measurements of Cytokines by Enzyme-Linked Immunosorbent Assay (ELISA). Tumor necrosis factor-alpha (TNF-α), interleukin-6 (IL-6) and interleukin-13 (IL-13) were measured in the cell culture supernatants. The products under investigation were measured using enzyme-linked immunosorbent assay (ELISA) kits (Abcam, Cambridge, UK), in agreement with the instructions reported by the manufacturer. All the samples were evaluated in duplicate and the obtained results were interpolated with the pertinent standard curves. To evaluate the sample, the means of the duplicated sample were used and expressed in pg/mL.

In the case of Cc1cc(C)cc(OCC2CNC(=O)O2)c1 (stereo not drawn) [metaxalone, 5-[(3,5-dimethylphenoxy)methyl]-2-oxazolidinone], the MAO-A inhibition [1] is given as “reported to inhibit”, the inflammatory cytokines [2] is given as “robust reduction” and the MAO-A activity (MAO-A) is given as “suppressed”. The “cell viability (MTT)” value (HMC3 microglial cells [3]) was “did not produce any toxic effect”, the “IL-6 mRNA expression” value (HMC3 microglial cells [4]; IL-1β (5 ng/mL)-stimulated HMC3 cells (IL-6 increased by IL-1β), 6 h, dose-dependent) was “significantly reverted” and the “IL-13 mRNA expression” value (HMC3 microglial cells [4]; IL-1β (5 ng/mL)-stimulated HMC3 cells (IL-13 decreased by IL-1β), 6 h, dose-dependent) was “significantly reverted”. For the same molecule, the “TNF-α mRNA expression” value (HMC3 microglial cells [4]; IL-1β (5 ng/mL)-stimulated HMC3 cells (TNF-α increased by IL-1β), 6 h, dose-dependent) was “significantly reverted”, the “NF-κB mRNA expression” value (HMC3 microglial cells [4]; IL-1β-stimulated HMC3 cells, dose-dependent) was “significantly reduced” and the “NRF-2 mRNA expression” value (HMC3 microglial cells [4]; IL-1β-stimulated HMC3 cells) was “significantly upregulated”. The “PGC-1α mRNA expression” value (HMC3 microglial cells [4]; IL-1β-stimulated HMC3 cells) was “marked increase”, the “PPARγ mRNA expression” value (HMC3 microglial cells [4]; IL-1β-stimulated HMC3 cells) was “marked increase” and the “MAO-A mRNA expression” value (HMC3 microglial cells [4]; IL-1β-stimulated microglia cells, dose-dependent) was “markedly reduced”. The IL-6 protein levels (HMC3 microglial cells [5]; supernatant of IL-1β-stimulated HMC3 cells (IL-6 increased by IL-1β)) was “significantly reverted”, the IL-13 protein levels (HMC3 microglial cells [5]; supernatant of IL-1β-stimulated HMC3 cells (IL-13 decreased by IL-1β)) was “significantly reverted” and the TNF-α protein levels (HMC3 microglial cells [5]; supernatant of IL-1β-stimulated HMC3 cells (TNF-α increased by IL-1β)) was “significantly reverted”.
